Laboratory results as given in publication PMC12680861, “Comparative analysis of LJ-4378 and tirzepatide in mouse models of obesity and weight regain” (Archives of Pharmacal Research, 2025).
Read-outs that look alike come from different tables or passages of the source.

Key:
CYP1A2 = target: T1, CYP1A2 (Homo sapiens, UniProt P05177); assay: CYP enzyme inhibition in pooled human liver microsomes (phenacetin substrate); conditions: human, pooled human liver microsomes, pH 7.4
T1 sequence (P05177 1-516): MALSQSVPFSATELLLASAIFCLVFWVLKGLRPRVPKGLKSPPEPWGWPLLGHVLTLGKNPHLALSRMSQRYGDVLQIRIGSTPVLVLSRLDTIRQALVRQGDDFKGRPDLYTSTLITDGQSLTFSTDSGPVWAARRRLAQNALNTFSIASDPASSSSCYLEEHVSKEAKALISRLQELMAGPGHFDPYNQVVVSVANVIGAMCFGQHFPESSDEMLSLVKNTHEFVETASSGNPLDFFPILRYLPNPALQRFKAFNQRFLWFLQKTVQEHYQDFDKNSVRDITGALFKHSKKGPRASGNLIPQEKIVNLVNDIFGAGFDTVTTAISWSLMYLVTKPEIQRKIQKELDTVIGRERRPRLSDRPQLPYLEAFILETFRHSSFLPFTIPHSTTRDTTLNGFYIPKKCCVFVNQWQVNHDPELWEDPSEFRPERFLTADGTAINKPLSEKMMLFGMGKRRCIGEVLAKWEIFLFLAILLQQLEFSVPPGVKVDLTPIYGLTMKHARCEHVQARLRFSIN
Protocol: (§1) Cytochrome 450 (CYP) enzyme inhibition was evaluated using pooled human liver microsomes (Corning, #452117). […] Substrates and corresponding metabolites for each CYP isoform were as follows: phenacetin and acetaminophen for CYP1A2 (Sigma Aldrich, #77440 and A7085, respectively), diclofenac and 4'-hydroxydiclofenac for CYP2C9 (Sigma Aldrich, D6899; TRC, H825225), S-mephenytoin and 4'-hydroxymephenytoin for CYP2C19 (Sigma Aldrich, UC175; Santacruz, sc210197), dextromethorphan and dextrorphan for CYP2D6 (Sigma Aldrich, #81091 and UC205), and midazolam and 1'-hydroxymidazolam for CYP3A4 (KFDA; Sigma Aldrich, UC430).
(§2) Samples were preincubated at 37 °C for 5 min, and the reaction was initiated by the addition of the NADPH regeneration system, followed by incubation at 37 °C for 15 min. The reaction was terminated by adding acetonitrile containing the internal standard, and centrifuged at 15,000 rpm for 5 min at 4 °C. The supernatant was analyzed by LC–MS/MS using a Nexera XR system (Shimadzu, Japan) coupled with a TSQ Vantage mass spectrometer (Thermo, USA). […] Metabolites were quantified in multiple reaction monitoring (MRM) mode with Xcalibur software (version 4.4).
(§3) All experiments were performed in duplicate with variability ≤ 15%. The percent activity of each CYP enzyme was calculated based on metabolite formation relative to the no-inhibitor control.

CYP2C9 = CYP2C9 (Homo sapiens, UniProt P11712); assay: CYP enzyme inhibition in pooled human liver microsomes (diclofenac substrate); conditions: human, pooled human liver microsomes, pH 7.4
Protocol: as §1, §2, §3

CYP2C19 = CYP2C19 (Homo sapiens, UniProt P33261); assay: CYP enzyme inhibition in pooled human liver microsomes (S-mephenytoin substrate); conditions: human, pooled human liver microsomes, pH 7.4
Protocol: as §1, §2, §3

Plasma stability assay [1] = format: in vitro ADME, human; conditions: human, plasma (100%, sodium citrate), 37 °C
Protocol: (§4) The plasma stability of LJ-4378 was evaluated using 100% plasma obtained from human (Biochemed, BC22089NCP, sodium citrate), rat (Innovative, IRT-N, sodium citrate), and mouse (Biochemed, 029-APSC-MP, sodium citrate). 10 Μm of LJ-4378 was added to the plasma, and samples were incubated at 37 °C for 0, 30, and 120 min. At each time point, an aliquot of the plasma was removed and mixed with acetonitrile containing the internal standard, chlorpropamide (TRC, C424800). […] The supernatant was injected into the LC–MS/MS system for quantification of the remaining compound. Analysis was performed using a Nexera XR system (Shimadzu, Japan) with a TSQ Vantage mass spectrometer (Thermo, USA). […] Data acquisition was conducted in MRM mode using Xcalibur software (version 4.4). All experiments were performed in duplicate with a deviation within 15%, and the percentage of compound remaining (% Remaining) at each time point was calculated relative to the non-incubated control sample. For quality control, procaine and enalapril (each at 10 μM) were used as reference compounds and were confirmed to fall within acceptable ranges.

Plasma stability assay [2] = format: in vitro ADME, rat; conditions: rat, plasma (100%, sodium citrate), 37 °C; for remaining at 0.5 h, 10 μM: 30 min, read-out: % Remaining compound, Rat plasma 30 min; for remaining at 2 h, 10 μM: 120 min, read-out: % Remaining compound, Rat plasma 120 min
Protocol: as §4

Plasma stability assay [3] = format: in vitro ADME, mouse; conditions: mouse, plasma (100%, sodium citrate), 37 °C; for remaining at 0.5 h, 10 μM: 30 min, read-out: % Remaining compound, Mouse plasma 30 min; for remaining at 2 h, 10 μM: 120 min, read-out: % Remaining compound, Mouse plasma 120 min
Protocol: as §4

[4] = Plasma protein binding, Rapid Equilibrium Dialysis (RED); format: in vitro ADME, human; conditions: human, plasma (100%, sodium citrate), pH 7.4, 37 °C, read-out: Plasma free fraction (% Free), Human
Protocol: (§5) The plasma protein binding of LJ-4378 was evaluated using the Rapid Equilibrium Dialysis (RED) method with 100% plasma from human (Biochemed, BC22089NCP), rat (Innovative, IRT-N), and mouse (Biochemed, 029-APSC-MP), all treated with sodium citrate as an anticoagulant. The RED device (ThermoFisher Scientific, #89809) and reusable base plate (ThermoFisher Scientific, #89811) were used with an 8 K MWCO membrane. Test compounds were added to plasma at a final concentration of 10 μM and dialyzed against phosphate-buffered saline (PBS, pH 7.4; Hyclone, #SH30256.01) at 37 °C for 4 h. After incubation, equal volumes of plasma and PBS samples were mixed with blank PBS and blank plasma, respectively, followed by the addition of acetonitrile containing chlorpropamide (TRC, C424800) as the internal standard. […] All measurements were performed in duplicate with a deviation of less than 15% between replicates. The free fraction (% Free) was calculated as (concentration in buffer chamber/concentration in plasma chamber) × 100, and the bound fraction (% Bound) was obtained by subtracting % Free from 100. In cases where measurements were unstable, deviations greater than 15% were allowed.

[5] = as above; format: in vitro ADME, rat; conditions: rat, plasma (100%, sodium citrate), pH 7.4, 37 °C, read-out: Plasma free fraction (% Free), Rat
Protocol: as §5

[6] = as above; format: in vitro ADME, mouse; conditions: mouse, plasma (100%, sodium citrate), pH 7.4, 37 °C, read-out: Plasma free fraction (% Free), Mouse
Protocol: as §5

Sequence of CYP2C9 (P11712 whole entry): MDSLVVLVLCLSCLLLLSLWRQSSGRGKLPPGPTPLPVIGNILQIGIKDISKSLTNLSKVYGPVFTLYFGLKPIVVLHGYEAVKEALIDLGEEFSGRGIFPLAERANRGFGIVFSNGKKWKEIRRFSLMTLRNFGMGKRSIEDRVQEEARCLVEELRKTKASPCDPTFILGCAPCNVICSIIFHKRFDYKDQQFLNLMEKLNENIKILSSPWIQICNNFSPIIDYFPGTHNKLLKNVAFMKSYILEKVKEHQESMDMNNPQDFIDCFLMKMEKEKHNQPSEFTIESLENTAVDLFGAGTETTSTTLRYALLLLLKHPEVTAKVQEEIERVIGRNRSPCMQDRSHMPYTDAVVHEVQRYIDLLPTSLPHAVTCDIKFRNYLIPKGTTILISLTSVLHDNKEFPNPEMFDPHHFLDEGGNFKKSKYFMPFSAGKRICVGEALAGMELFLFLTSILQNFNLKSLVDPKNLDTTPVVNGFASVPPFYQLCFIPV
Sequence of CYP2C19 (P33261 whole entry): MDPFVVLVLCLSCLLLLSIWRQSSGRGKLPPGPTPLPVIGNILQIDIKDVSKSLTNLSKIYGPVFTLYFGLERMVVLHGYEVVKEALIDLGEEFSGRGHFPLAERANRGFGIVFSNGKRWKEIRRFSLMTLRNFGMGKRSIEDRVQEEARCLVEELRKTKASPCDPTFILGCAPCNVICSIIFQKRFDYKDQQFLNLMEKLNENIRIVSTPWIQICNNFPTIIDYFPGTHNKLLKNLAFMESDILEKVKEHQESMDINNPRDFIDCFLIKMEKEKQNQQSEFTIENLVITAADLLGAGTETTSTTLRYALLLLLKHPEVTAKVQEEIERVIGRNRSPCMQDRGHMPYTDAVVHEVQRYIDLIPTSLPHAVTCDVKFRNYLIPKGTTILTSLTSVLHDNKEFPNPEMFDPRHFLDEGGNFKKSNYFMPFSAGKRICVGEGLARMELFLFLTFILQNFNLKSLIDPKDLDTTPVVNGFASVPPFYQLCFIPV

remaining at 0.5 h, 10 μM (Plasma stability assay [2]) [%] | remaining at 2 h, 10 μM (Plasma stability assay [2]) [%] | remaining at 0.5 h, 10 μM (Plasma stability assay [3]) [%] | remaining at 2 h, 10 μM (Plasma stability assay [3]) [%] | fraction unbound at 4 h, 10 μM [4] | fraction unbound at 4 h, 10 μM [5] | fraction unbound at 4 h, 10 μM [6] | further results | SMILES
– | – | – | – | – | – | – | activity at 15 min, 10 µM (CYP1A2): 98.3%; activity at 15 min, 10 µM (CYP2C9): 98%; activity at 15 min, 10 µM (CYP2C19): > 100% | CC(=O)N1CCN(c2ccc(OCC3COC(Cn4ccnc4)(c4ccc(Cl)cc4Cl)O3)cc2)CC1 (stereo not drawn) [Ketoconazole, ketoconazole, reference compound]
34.5 | 1.4 | 66 | 26.3 | – | – | – | remaining at 0.5 h, 10 μM (Plasma stability assay [1]; 30 min, read-out: % Remaining compound, Human plasma 30 min): > 100%; remaining at 2 h, 10 μM (Plasma stability assay [1]; 120 min, read-out: % Remaining compound, Human plasma 120 min): 95.9% | CCOC(=O)[C@H](CCc1ccccc1)N[C@@H](C)C(=O)N1CCC[C@H]1C(=O)O [Enalapril, enalapril]
85.2 | 45.2 | 7 | < 1 | – | – | – | remaining at 5 min, 10 μM (Plasma stability assay [1]; 5 min (printed in the 30 min column), read-out: % Remaining compound, Human plasma 5 min): 1.2%; remaining at 10 min, 10 μM (Plasma stability assay [1]; 10 min (printed in the 120 min column), read-out: % Remaining compound, Human plasma 10 min): < 1% | CCN(CC)CCOC(=O)c1ccc(N)cc1 [Procaine, procaine]
– | – | – | – | 0.359 | 0.222 | 0.297 | – | C[C@@H]1C[C@H]2[C@@H]3CCC4=CC(=O)C=C[C@]4(C)[C@@]3(F)[C@@H](O)C[C@]2(C)[C@@]1(O)C(=O)CO [Dexamethasone]
– | – | – | – | 0.006 | 0.01 | 0.062 | – | CC(=O)CC(c1ccccc1)c1c(O)c2ccccc2oc1=O (stereo not drawn) [Warfarin]
